From ChEMBL document CHEMBL1158596, “Synthetic studies on selective adenosine A2A receptor antagonists. Part II: synthesis and structure-activity relationships of novel benzofuran derivatives” (Bioorg Med Chem Lett, 2010)
Converted amounts (≈) assume the structure as drawn.

What was measured:
[1] = target: Adenosine receptor A2a (Homo sapiens) (UniProt P29274); assay: Displacement of [3H]CGS21680 from human adenosine A2A receptor at 0.01 umol/L by scintillation counting
[2] = target: Adenosine receptor A2a (Homo sapiens) (UniProt P29274); assay: Displacement of [3H]CGS21680 from human adenosine A2A receptor at 0.1 umol/L by scintillation counting
[3] = Intrinsic clearance in human liver microsome; assay type: ADME; conditions: liver microsomes
[4] = Solubility n JP2 fluid; assay type: physicochemical
[5] = Intrinsic clearance in marmoset liver microsome […]; assay type: ADME, Callithrix jacchus; conditions: liver microsomes
Mus musculus = assay: Antiparkinsonian effect in mouse assessed as inhibition of CGS-21680-induced catalepsy at 10 mg/kg, po; assay type: functional; conditions: for inhibition in vivo at 10 mg/kg: Mus musculus
[6] = target: T1, Adenosine receptor A2b (Homo sapiens) (UniProt P29275); assay: Antagonist activity at human adenosine A2B receptor at 1 umol/L; assay type: functional
T1 sequence (whole entry): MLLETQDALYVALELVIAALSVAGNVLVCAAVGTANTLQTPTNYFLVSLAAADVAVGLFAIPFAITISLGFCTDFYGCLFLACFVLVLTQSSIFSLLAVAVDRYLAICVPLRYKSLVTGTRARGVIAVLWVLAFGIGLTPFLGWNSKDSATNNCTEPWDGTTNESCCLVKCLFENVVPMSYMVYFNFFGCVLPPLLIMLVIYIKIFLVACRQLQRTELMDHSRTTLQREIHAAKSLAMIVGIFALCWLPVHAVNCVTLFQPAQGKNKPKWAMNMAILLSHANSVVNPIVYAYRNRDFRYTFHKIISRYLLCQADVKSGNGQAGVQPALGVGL

[7] = target: T2, Adenosine receptor A1 (Homo sapiens) (UniProt P30542); assay: Antagonist activity at human adenosine A1 receptor at 1 umol/L; assay type: functional
T2 sequence (whole entry): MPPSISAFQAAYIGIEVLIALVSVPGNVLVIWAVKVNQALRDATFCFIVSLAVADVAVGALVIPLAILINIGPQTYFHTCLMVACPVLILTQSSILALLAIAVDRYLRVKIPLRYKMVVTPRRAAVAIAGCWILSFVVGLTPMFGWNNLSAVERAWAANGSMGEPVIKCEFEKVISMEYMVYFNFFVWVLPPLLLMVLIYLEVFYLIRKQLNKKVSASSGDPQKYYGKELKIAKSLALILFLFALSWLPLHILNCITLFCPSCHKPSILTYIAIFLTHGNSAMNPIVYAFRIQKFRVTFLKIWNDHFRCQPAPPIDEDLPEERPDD

Chain of Adenosine receptor A2a (Homo sapiens) (P29274 whole entry): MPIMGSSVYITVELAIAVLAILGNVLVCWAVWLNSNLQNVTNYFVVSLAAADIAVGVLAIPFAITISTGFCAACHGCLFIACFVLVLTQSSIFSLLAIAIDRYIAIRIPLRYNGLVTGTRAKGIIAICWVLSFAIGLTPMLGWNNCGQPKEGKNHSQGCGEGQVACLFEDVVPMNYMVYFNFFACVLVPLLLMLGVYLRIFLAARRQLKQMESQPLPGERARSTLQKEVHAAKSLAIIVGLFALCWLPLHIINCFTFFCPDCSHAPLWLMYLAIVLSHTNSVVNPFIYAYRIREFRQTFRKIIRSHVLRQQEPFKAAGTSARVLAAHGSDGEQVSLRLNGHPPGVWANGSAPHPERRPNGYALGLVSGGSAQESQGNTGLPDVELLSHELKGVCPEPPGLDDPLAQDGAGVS

| inhibition [1] [%] | inhibition [2] [%] | CLint scaled [3] [mL/min/kg] | solubility [4] [µg/mL] | CLint scaled [5] [mL/min/kg] | inhibition [6] [%] | inhibition [7] [%] | Structure (SMILES) | inhibition in vivo at 10 mg/kg (Mus musculus) [%] | inhibition (INH) (Mus musculus) [%] |
| --- | --- | --- | --- | --- | --- | --- | --- | --- | --- |
| – | -5 | – | – | – | – | – | COc1c(N2CCOCC2)ccc2cc(C(=O)Nc3ccncc3)oc12 | – | – |
| 23 | 58 | – | 97 (≈ 334 µM) | 21.7 | – | – | CNC(=O)c1cc2c(N3CCOCC3)ccc(OC)c2o1 | – | – |
| 50 | 89 | – | 2 (≈ 4.62 µM) | 133 | – | – | COc1ccc(N2CCOCC2)c2cc(C(=O)Nc3ccc(Cn4ccnc4)cc3)oc12 | – | – |
| 39 | 74 | – | 47 (≈ 101 µM) | – | – | – | COc1ccc(N2CCOCC2)c2cc(C(=O)Nc3ccc(CN4CCC(O)CC4)cc3)oc12 | 50 | – |
| 37 | 87 | – | – | – | – | – | CCNC(=O)c1cc2c(N3CCOCC3)ccc(OC)c2o1 | 44 | – |
| 30 | 73 | – | 87 (≈ 246 µM) | < 7.17 | 21 | 4 | COc1ccc(N2CCOCC2)c2cc(C(=O)Nc3ccncc3)oc12 | 76 | – |
| 26 | 77 | – | – | – | – | – | COc1ccc(N2CCOCC2)c2oc(C(=O)Nc3ccncc3)cc12 | – | – |

More lines, now with the values behind:

| Structure (SMILES) | inhibition [1] [%] | inhibition [2] [%] | CLint scaled [3] [mL/min/kg] | solubility [4] [µg/mL] | CLint scaled [5] [mL/min/kg] | inhibition [6] [%] | inhibition [7] [%] | inhibition in vivo at 10 mg/kg (Mus musculus) [%] | inhibition (INH) (Mus musculus) [%] |
| --- | --- | --- | --- | --- | --- | --- | --- | --- | --- |
| COc1ccc(-c2cnccn2)c2cc(C(=O)Nc3ccncc3)oc12 | 24 | 22 | 154 | – | – | – | – | – | – |
| COc1ccc(-c2ccccn2)c2cc(C(=O)Nc3ccncc3)oc12 | 4 | 27 | 37.2 | – | – | – | – | – | – |
| COc1ccc(-c2ccncc2)c2cc(C(=O)Nc3ccc(Cn4ccnc4)cc3)oc12 | 56 | 90 | 40.7 | – | – | – | – | 60 | – |
| COc1ccc(-c2cnccn2)c2cc(C(=O)Nc3ccc(Cn4ccnc4)cc3)oc12 | 20 | 44 | < 7.83 | – | – | – | – | – | – |
| COc1ccc(-c2ccccc2)c2cc(C(=O)Nc3ccncc3)oc12 | 29 | 87 | 580 | – | – | – | – | – | 40 |
| COc1ccc(N2CCOCC2)c2cc(C(=O)NC3CCN(c4ncccn4)CC3)oc12 | -2 | 26 | – | – | – | – | – | – | – |
| COc1ccc(-c2cccnc2)c2cc(C(=O)Nc3ccncc3)oc12 | 27 | 67 | 57 | – | – | – | – | 38 | – |
| COc1ccc(-c2cccnc2)c2cc(C(=O)Nc3ccc(Cn4ccnc4)cc3)oc12 | 46 | 83 | 53 | – | – | – | – | 60 | – |
| COc1ccc(-c2ccncc2)c2cc(C(=O)Nc3ccncc3)oc12 | 18 | 72 | 32.8 | – | – | – | – | 48 | – |
